Test results: PubChem BioAssay (NCI)
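Briefly, cells in 96-well plates were exposed to five compound concentrations for 48 h, and endpoints were estimated by linear interpolation. The concentration for full growth arrest is given as TGI.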

Legend:
Assay in all cases: NCI tumour cell line growth inhibition, 48 h
786-0 renal = test system: 786-0 renal
M19-MEL melanoma = test system: M19-MEL melanoma
SK-OV-3 ovarian = test system: SK-OV-3 ovarian
DLD-1 colon = test system: DLD-1 colon
SF-295 CNS = test system: SF-295 CNS
MDA-MB-435 = test system: MDA-MB-435
SNB-19 CNS = test system: SNB-19 CNS
MDA-N = test system: MDA-N
UACC-62 melanoma = test system: UACC-62 melanoma
SN12C renal = test system: SN12C renal
SW-620 colon = test system: SW-620 colon
RXF 393 renal = test system: RXF 393 renal
NCI-H226 lung = test system: NCI-H226 lung
MDA-MB-231 breast = test system: MDA-MB-231 breast
CCRF-CEM leukemia = test system: CCRF-CEM leukemia
SR leukemia = test system: SR leukemia
CAKI-1 renal = test system: CAKI-1 renal
HOP-62 NSCLC = test system: HOP-62 NSCLC
IGROV1 ovarian = test system: IGROV1 ovarian
DMS 273 small cell lung = test system: DMS 273 small cell lung
SK-MEL-5 melanoma = test system: SK-MEL-5 melanoma
RPMI-8226 leukemia = test system: RPMI-8226 leukemia
SK-MEL-2 melanoma = test system: SK-MEL-2 melanoma
NCI-H522 lung = test system: NCI-H522 lung
HCT-15 colon = test system: HCT-15 colon
OVCAR-5 ovarian = test system: OVCAR-5 ovarian
TK-10 renal = test system: TK-10 renal
HL-60(TB) leukemia = test system: HL-60(TB) leukemia
HT29 colon = test system: HT29 colon
UO-31 renal = test system: UO-31 renal
NCI-H23 lung = test system: NCI-H23 lung
RXF-631 renal = test system: RXF-631 renal
MALME-3M melanoma = test system: MALME-3M melanoma
MOLT-4 leukemia = test system: MOLT-4 leukemia
HOP-18 NSCLC = test system: HOP-18 NSCLC
A549 NSCLC = test system: A549 NSCLC
XF 498 CNS = test system: XF 498 CNS
SK-MEL-28 melanoma = test system: SK-MEL-28 melanoma
OVCAR-4 ovarian = test system: OVCAR-4 ovarian
EKVX NSCLC = test system: EKVX NSCLC
SNB-75 CNS = test system: SNB-75 CNS
HOP-92 NSCLC = test system: HOP-92 NSCLC
A498 renal = test system: A498 renal
U251 CNS = test system: U251 CNS
ACHN renal = test system: ACHN renal
T-47D breast = test system: T-47D breast
K-562 leukemia = test system: K-562 leukemia
OVCAR-3 ovarian = test system: OVCAR-3 ovarian
SF-268 CNS = test system: SF-268 CNS
HCT-116 colon = test system: HCT-116 colon
HCC-2998 colon = test system: HCC-2998 colon
DMS 114 small cell lung = test system: DMS 114 small cell lung
NCI-H460 lung = test system: NCI-H460 lung
M14 melanoma = test system: M14 melanoma
UACC-257 melanoma = test system: UACC-257 melanoma
SF-539 CNS = test system: SF-539 CNS
PC-3 prostate = test system: PC-3 prostate
LXFL 529 NSCLC = test system: LXFL 529 NSCLC
SNB-78 CNS = test system: SNB-78 CNS
COLO 205 colon = test system: COLO 205 colon
KM12 colon = test system: KM12 colon
DU-145 prostate = test system: DU-145 prostate

CCCCC1N=CNc2c1ccc1c2[nH]c2ccccc21 (configuration not stated)
TGI (786-0 renal): 3.34 µM | TGI (M19-MEL melanoma): 11.8 µM | TGI (SK-OV-3 ovarian): 11.3 µM | TGI (DLD-1 colon): 6.3 µM | TGI (SF-295 CNS): 7.25 µM | TGI (MDA-MB-435): 3.35 µM | TGI (SNB-19 CNS): 24.9 µM | TGI (MDA-N): 3.28 µM | TGI (UACC-62 melanoma): 8.94 µM | TGI (SN12C renal): 7.8 µM | TGI (SW-620 colon): 3.55 µM | TGI (RXF 393 renal): 2.16 µM | TGI (NCI-H226 lung): > 61.1 µM | TGI (MDA-MB-231 breast): 3.3 µM | TGI (CCRF-CEM leukemia): 5.89 µM | TGI (SR leukemia): 4.66 µM | TGI (CAKI-1 renal): 9.16 µM | TGI (HOP-62 NSCLC): 9.97 µM | TGI (IGROV1 ovarian): 8.18 µM | TGI (DMS 273 small cell lung): 3.38 µM | TGI (SK-MEL-5 melanoma): 2.95 µM | TGI (RPMI-8226 leukemia): 5.13 µM | TGI (SK-MEL-2 melanoma): 8.89 µM | TGI (NCI-H522 lung): 3.57 µM | TGI (HCT-15 colon): 4.72 µM | TGI (OVCAR-5 ovarian): 9.07 µM | TGI (TK-10 renal): 10.9 µM | TGI (HL-60(TB) leukemia): 3.68 µM | TGI (HT29 colon): 3.95 µM | TGI (UO-31 renal): 21.9 µM | TGI (NCI-H23 lung): 11 µM | TGI (RXF-631 renal): 5.97 µM | TGI (MALME-3M melanoma): 10.5 µM | TGI (MOLT-4 leukemia): 6.51 µM | TGI (HOP-18 NSCLC): 22.5 µM | TGI (A549 NSCLC): 10.6 µM | TGI (XF 498 CNS): 3.4 µM | TGI (SK-MEL-28 melanoma): 24.6 µM | TGI (OVCAR-4 ovarian): 8.15 µM | TGI (EKVX NSCLC): 21.6 µM | TGI (SNB-75 CNS): 5.54 µM | TGI (HOP-92 NSCLC): 9.72 µM | TGI (A498 renal): 29.8 µM | TGI (U251 CNS): 16.5 µM | TGI (ACHN renal): 5.45 µM | TGI (T-47D breast): 3.2 µM | TGI (K-562 leukemia): 5.4 µM | TGI (OVCAR-3 ovarian): 12.2 µM | TGI (SF-268 CNS): 29.4 µM | TGI (HCT-116 colon): 3.32 µM | TGI (HCC-2998 colon): 3.01 µM | TGI (DMS 114 small cell lung): 4.06 µM | TGI (NCI-H460 lung): 4.22 µM | TGI (M14 melanoma): 6.74 µM | TGI (UACC-257 melanoma): 3.3 µM | TGI (SF-539 CNS): 7.91 µM | TGI (PC-3 prostate): 3.23 µM | TGI (LXFL 529 NSCLC): 3.78 µM | TGI (SNB-78 CNS): 38.6 µM | TGI (COLO 205 colon): 3.27 µM | TGI (KM12 colon): 41.8 µM | TGI (DU-145 prostate): 5.72 µM
